These results are taken from patent US7544806B2, “Piperidine-substituted indoles-or heteroderivatives thereof” (Boehringer Ingelheim International GmbH, priority 2003, dated 2009).

Structures are written as SMILES.

As a reminder, the melting point is the temperature of the solid-liquid transition.

The molecule `CCOC(=O)c1cccc(SCCCN2CCC(n3c(CC)cc4cc(F)ccc43)CC2)c1` [Example 36, 3-{3-[4-(2-Ethyl-5-fluoro-indol-1-yl)-piperidin-1-yl]propylsulfanyl}-benzoic acid ethyl ester] displayed a melting point of 179 to 181 °C.
